This test has as its target T1, D2 receptors (Homo sapiens, UniProt P14416).
T1 construct: expressed in transfected cells
The test can be described thus: GTPS scintillation proximity assay (GTPS-SPA), CHO_D2 cell membranes. In kind it is biochemical. The settings on record: up to the highest concentration tested in the assay (3 μM). The procedure:
Functional potency of compounds of this invention can be measured by the following GTPS scintillation proximity assay (GTPS-SPA). Cells used in the study are Chinese Hamster Ovary (CHO) Cells.
All steps are performed at 4° C. Cell membranes are prepared as follows. Cell pellets are resuspended in 10 volumes of 50 mM HEPES, 1 mM EDTA pH 7.4, using KOH.
Cells are homogenised within a glass waring blender for 2 bursts of 15 secs in 200 mls of buffer (50 mM HEPES, 1 mM leupeptin, 25 μg/ml bacitracin, 1 mM EDTA, 1 mM PMSF, 2 μM Pepstatin A). (the latter 2 reagents added as fresh ×100 and ×500 stocks respectively in ethanol). […]
The final top concentration of test drug is 3 μM in the assay and 11 points serial dilution curves 1:4 in 100% DMSO are carried out using a Biomek FX. […] The final assay cocktail (45.5 μl) is incubated at room temperature to equilibrate for 3-6 hours before reading on a ViewLux™ (613/55 filter) luminescence imager 5 min/plate.
The effect of the test drug over the basal generates fpKi values of test drug are calculated from the IC50 generated by “antagonist format” experiment, using Cheng & Prusoff equation: fKi=IC50/1+([A]/EC50) where: [A] is the concentration of the agonist Quinelorane in the assay and EC50 is the Quinelorane EC50 value obtained in the same experiment. fpKi is defined as −log fKi. […]
(In general: Scintillation proximity formats need no separation of bound from free tracer.)

Experimental findings from patent US8163927B2, “Azabicyclo [3.1.0] hexane derivatives as modulators of dopamine D3 receptors” (Glaxo Group Limited, priority 2006, dated 2012) are described below.

T1 sequence (P14416 whole entry): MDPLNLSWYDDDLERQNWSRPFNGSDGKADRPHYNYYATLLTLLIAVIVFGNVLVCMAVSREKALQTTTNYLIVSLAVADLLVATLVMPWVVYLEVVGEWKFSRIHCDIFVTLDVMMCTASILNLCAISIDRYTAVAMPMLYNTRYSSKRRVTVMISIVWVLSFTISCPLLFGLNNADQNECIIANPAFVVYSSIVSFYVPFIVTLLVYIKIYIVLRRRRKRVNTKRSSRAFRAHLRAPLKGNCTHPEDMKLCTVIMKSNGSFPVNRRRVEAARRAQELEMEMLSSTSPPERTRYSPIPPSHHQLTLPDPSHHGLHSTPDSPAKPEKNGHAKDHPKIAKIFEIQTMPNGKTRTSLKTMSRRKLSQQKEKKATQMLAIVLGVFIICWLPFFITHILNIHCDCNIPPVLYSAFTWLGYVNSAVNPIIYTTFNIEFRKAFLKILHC

In the case of `COc1cccn(CCCCN2C[C@@H]3C[C@]3(c3ccc(C(F)(F)F)cc3)C2)c1=O.Cl` [Example E8, 3-(methyloxy)-1-(4-{(1S,5R)-1-[4-(trifluoromethyl)phenyl]-3-azabicyclo[3.1.0]hex-3-yl}butyl)-2(1H)-pyridinone hydrochloride], the “activity in the D2 GTPS-SPA assay” value is given as “no activity”. Then `Cl.N#Cc1cccn(CCCCN2C[C@@H]3C[C@]3(c3ccc(C(F)(F)F)cc3)C2)c1=O` [Example E9, 2-oxo-1-(4-{(1S,5R)-1-[4-(trifluoromethyl)phenyl]-3-azabicyclo[3.1.0]hex-3-yl}butyl)-1,2-dihydro-3-pyridinecarbonitrile hydrochloride], with “no activity”.
